Results on three compounds are retold here after US6699842B1, “Dominant negative deletion mutants of C-jun and their use in the prevention and treatment of cancer” (The United States of America as represented by the …, priority 1994, dated 2004).

What all share (type): cell-based, mouse
Experiment [1] deals with AP-1. Kind of experiment: CAT assay with stromelysin promoter reporter P750TRCAT (AP-1 dependent) in JB6 P+ Cl 41 cells. The conditions noted are these: for inhibition of TPA-induced CAT activity: 8 hours. The text has this:
The plasmid constructs used in the following examples were as follows: P750TRCAT is a CAT reporter construct containing 750 bp of the rat stromelysin promoter driving the heterogolous gene chloramphenicol acetyl-transferase (CAT). This construct contains an AP-1 binding sequence at position −70 (Matrisian, L. M. et al. (1991) Am. J. Medic. Sci., 302: 157-162, Kerr, L. D. et al. (1988) Science., 242: 1424-1427, McDonnell, S. E. et al. (1990) Mol. Cell. Biol. 105 4284-4293). The mTRE-CAT reporter is a site-directed mutant with 2 point mutations in the AP-1 site (Matrisian, L. M. et al. (1991) Am. J. Medic. Sci., 302: 157-162) and the mPEA3-CAT reporter is a site-directed mutant in which point mutations in each of the PEA3 sites at position −208 to −200 and −191 to −199 of the stromelysin promoter were introduced using a protocol provided with the site-directed mutagenesis kit of Amersham Corp. (Arlington Heights, Ill.) and an oligonucleotide having SEQ ID NO.:1 GCAAGAAGCATTTCTTGG.
In brief, JB6 Cl 41 (P^+) cells transfected for 4-5 hours using a standard calcium phosphate transfection procedure (Sambrook, J. et al. (1989) “Molecular Cloning, A Laboratory Manual” Cold Spring Harbor Laboratory Press, Cold Spring Harbor, N.Y.) with 10 μg of one of three CAT reporter plasmid DNAs, P750TRCAT, mTRE-CAT or mPEA3-CAT and 10 μg of sheared genomic DNA isolated from Cl 41 cells were then changed to medium containing 2% fetal calf serum and twenty-four to forty-two hours later, were treated with either 0.1% of DMSO, 10 ng/ml of TPA or 10 ng/ml EGF for eight hours prior to preparation of total cell extracts. CAT enzyme activity was assayed using a diffusion-based CAT assay according to the protocol provided by the manufacturers (New England Nuclear, Del.). The results are expressed as the rate of accumulation of [^14C]-acetylated product relative to solvent controls (DMSO).
In order to determine whether TPA-induced CAT activity in JB6 P^+ cells is capable of being abolished, TPA induced CAT activity was measured in the presence of the known AP-1 inhibitors retinoic acid (RA) and fluocinolone acetonide (FA). In brief, JB6 P^+ Cl 41 cells were transfected with 10 μg of P750TRCAT and 10 μg of sheared genomic DNA from Cl 41 cells as in Example 1. 24-42 hours after transfection, cells were then exposed for 8 hours to either 0.1% DMSO, […] (TPA), 10^−7 M fluocinolone acetonide (FA) in the absence of 10 ng/ml TPA (FA7), 10^−9, 10^−8 and 10^−7 M FA in the presence of 10 ng/ml TPA (TFA9, TFA8, TFA7, respectively), 10^−5 M retinoic acid (RA) in the absence of 10 ng/ml TPA (RA5), or to 10^−7, 10^−6 and 10^−5 M RA in the presence of 10 ng/ml TPA (TRA7, TRA6, TRA5 respectively). Following the above treatments, total cell extracts were prepared and CAT enzyme activity was assayed as in Example 1. As before, the results are expressed as the rate of accumulation of ^14C-acetylated product relative to solvent controls.
In order to determine whether an overexpressed TAM67 protein could repress TPA-induced CAT activity in JB6 P^+ cells, eight TAM67 clonal transfectants (M1-M8) and three neo-only clonal transfectants (N1-N3) were transfected with 10 μg of P750TRCAT reporter plasmid using the standard calcium phosphate protocol described in. Example 1. Forty two hours after transfection with P750TRCAT, the cells were exposed to either 0.01% DMSO (closed bar, FIG. 5A), or 10 ng/ml TPA (crossed-hatched bar, FIG. 5A) or, to water (closed bar, FIG. 5B) or 10 ng/ml EGF (cross-hatched bar, FIG. 5B) for eight hours. Total cell extracts were then prepared from the treated cells and assayed for CAT activity as described in Example 1.

For experiment [2], the system named is JB6 P+ Cl 41.5a cells. Kind of experiment: soft agar transformation assay, JB6 P+ Cl 41.5a cells. The conditions noted are these: 3 ng/ml TPA, 14 days in 0.33% agar, FA 10^−9-10^−7 M, RA 10^−9-10^−6 M. How it is done:
(§1) In order to test whether the same concentration ranges of inhibitors shown in FIGS. 2A and 2B to repress TPA-induced AP-1 activity could also block TPA-induced transformation, a soft agar transformation assay was carried out on JB6 P^+ Cl 41 (cross-hatched bar) or JB6 P^+ Cl 41.5a (closed bar) cells exposed in 0.33% agar for 14 days to 0.01% DMSO alone, 3 ng/ml TPA alone (TPA), 10^−7 or 10^−8 M FA alone (FA7 and FA8, respectively), 10^−6 M RA alone (RA6) 3 ng/ml TPA in the presence of 10^−7-10^−9 M FA (TFA7, TFA8, TFA9) or to 3 ng/ml TPA in 10^−6-10^−9 M retinoic acid (TRA6, TRA7, TRA8, TRA9). Treated cells were scored for colonies after 14 days in agar and transformation response was expressed as the number of soft agar colonies/10^4 suspended cells. […] In agreement with an earlier observation by De Benedetti et al. ((1991) Cancer Res., 51:1158-1164), the sensitivity of Cl 41.5a cells to antipromotion by RA appeared to be greater than that observed with the Cl 41 cells. More importantly, the concentration-dependent range of FA effective in blocking TPA-induced transformation appeared identical to that range which was active in blocking TPA-induced CAT activity by FA (10^−9 M to 10^−7 M FA, see TFA7, TFA8 and TFA9 in FIG. 2A). […]

Experiment [3] relates to JB6 P+ Cl 41 cells. Nature of the experiment: soft agar transformation assay, JB6 P+ Cl 41 cells. The conditions noted are these: 3 ng/ml TPA, 14 days in 0.33% agar, FA 10^−9-10^−7 M, RA 10^−9-10^−6 M. Here is the method:
as §1

For experiment [4], the system named is c-Jun. Kind of experiment: immunoprecipitation and densitometry of c-Jun protein in stable JB6 transfectants. The conditions noted are these: 10 ng/ml, fifteen hours, TAM67 or Neo-only transfectants. Here is the method:
Three TAM67 clonal transfectants (M4, M3, M6) and one neo-only clonal transfectant (N1) were treated for fifteen hours with either 10 ng/ml TPA (T), 10 ng/ml EGF (E), or 0.1% DMSO (D) prior to metabolic labelling for two hours with 0.2 mCi/ml ^35S -methionine (Amersham, Rockford, Ill.) (Sun, Y. et al. (1993) Mol. Carcinogenesis, 8: 49-57). Cellular lysates were then collected and immunoprecipitations using polyclonal rabbit c-jun antibody (AB-1 antibody, Oncogene Science) were carried out overnite at 4° C. (Sun et al. (1993)). These immunoprecipitates were then analyzed by electrophoresis on 12.5% SDS polyacrylamide gels and these gels are shown in FIG. 4.

With `CC1(C)O[C@@H]2C[C@H]3[C@@H]4C[C@H](F)C5=CC(=O)C=C[C@]5(C)[C@@]4(F)[C@@H](O)C[C@]3(C)[C@]2(C(=O)CO)O1` [FA, Fluocinolone acetonide], the “inhibition of TPA-induced CAT activity” value in experiment [1] (10^−9-10^−7 M FA with 10 ng/ml TPA, P750TRCAT) was “dose-dependent inhibition”. Besides, the “TPA-induced transformation (soft agar colonies/10^4 suspended cells)” value in experiment [2] and in experiment [3] was “blocked TPA-induced transformation in a concentration-dependent manner” in each case.

In the case of `CC1=C(/C=C/C(C)=C/C=C/C(C)=C/C(=O)O)C(C)(C)CCC1` [RA, retinoic acid], the “inhibition of TPA-induced CAT activity” value in experiment [1] (10^−7-10^−5 M RA with 10 ng/ml TPA, P750TRCAT) is 90-100%.

`CCCCCCCCCCCCCC(=O)O[C@@H]1[C@@H](C)[C@@]2(O)[C@@H](C=C(CO)C[C@]3(O)C(=O)C(C)=C[C@@H]23)[C@@H]2C(C)(C)[C@]12OC(C)=O` [TPA, 12-O-tetradecanoyl phorbol 13-acetate]: the “increase in AP-1 dependent CAT activity in neo-only transfectants” value in experiment [1] (10 ng/ml, eight hours, N1-N3 transfectants, P750TRCAT) lay in the range of 3 to 4.5 fold. Further, the “CAT activity relative to uninduced cells, P750TRCAT reporter” value in experiment [1] (10 ng/ml, eight hours, P750TRCAT-transfected JB6 P+ Cl 41 cells) is listed as “about 2 fold”. In experiment [1] (10 ng/ml, eight hours, mPEA3-CAT-transfected JB6 P+ Cl 41 cells (PEA3 sites mutated)), the “CAT activity relative to uninduced cells, mPEA3-CAT reporter” value was “about 2 fold”. Moreover, the “inducibility of CAT activity, mTRE-CAT reporter” value in experiment [1] (10 ng/ml, eight hours, mTRE-CAT-transfected cells (AP-1 binding site mutated)) is recorded as “loss of inducibility”. Moreover, in experiment [4], the “c-Jun protein levels (43 kDa band, densitometric analysis)” value is reported as “no significant differences”.
